Data: US20220274980A1, “PHARMACOLOGICAL INHIBITORS OF THE ENL YEATS DOMAIN” (priority 2019, published 2022)

Target: T1, BRD4 bromodomain 1 (BD1) (Homo sapiens, UniProt O60885)
T1 construct: Selectivity against BRD4 bromodomain 1 (BD1), measured by HTRF; His; purchased Cayman 11720
Assay: BRD4 (BD1)-H4 tetra-acetylated HTRF histone-binding assay
Procedure, shortened: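 Recombinant BRD4 BD1 (10 nM) was combined with 13.3 nM biotinylated tetra-acetylated H4 peptide, Eu-anti-His antibody and APC-streptavidin in HEPES buffer, pH 7. Compound was pin-transferred and plates incubated ≥2 h before HTRF reading (665/620 nm ratio). Percent inhibition was normalised to vehicle (maximum) and no-peptide (minimum) wells.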

- IC50 (Table 1): > 50 µM
- IC50 (Table 2): > 50 µM
SMILES: O=C(NC1CCC1)c1ccc2nc(-c3cccc(NS(=O)(=O)NCCN4CCCCC4)c3)cn2c1 [Compound 93]
